From patent US20230263822A1, “MODULATION OF FACTOR 11 EXPRESSION” (Ionis Pharmaceuticals, Inc., priority 2008, published 2023)

Test: Hematology assays in cynomolgus monkeys (Example 45)
Type: in vivo
Conditions: for MCH / MCHC / MCV / RBC count / WBC count / hematocrit / hemoglobin: escalating dose regimen
Procedure: Groups, each consisting of two male and three female monkeys, were injected subcutaneously with ISIS 416838, ISIS 416850, ISIS 416858, ISIS 416864, or ISIS 417002 in escalating doses. Antisense oligonucleotide was administered to the monkeys at 5 mg/kg three times per a week for week 1; 5 mg/kg twice per week for weeks 2 and 3; 10 mg/kg three times per week for week 4; 10 mg/kg twice per week for weeks 5 and 6; 25 mg/kg three times per week for week 7; and 25 mg/kg twice per week for weeks 8, 9, 10, 11, and 12. One control group, consisting of two male and three female monkeys, was injected subcutaneously with PBS according to the same dosing regimen. An additional experimental group, consisting of two male and three female monkeys, was injected subcutaneously with ISIS 416850 in a chronic, lower dose regimen. Antisense oligonucleotide was administered to the monkeys at 5 mg/kg three times per week for week 1; 5 mg/kg twice per week for week 2 and 3; 10 mg/kg three times per week for week 4; and 10 mg/kg twice per week for weeks 5 to 12. Body weights were measured weekly. Blood samples were collected 14 days and 5 days before the start of treatment and subsequently once per week for Factor 11 protein activity analysis in plasma, fibrinogen measurement, PT and aPTT measurements, bleeding times, and measurement of various hematologic factors. On day 85, the monkeys were euthanized by exsanguination while under deep anesthesia, and organs harvested for further analysis.
The ISIS oligonucleotide, ISIS 416850, given with the chronic dose regimen is distinguished from the other oligonucleotides with an asterisk (*).

Substance: ISIS 416858: MOE gapmer, nucleobases 1275 to 1318 of SEQ ID NO: 1 (Table 8) (antisense ACGGCATTGGTGCACAGTTT; MOE gapmer, wing and gap sizes not given here)
- MCH (Day 64): 22 pg
- MCH (Day 71): 22 pg
- MCH (Day 78): 23 pg
- MCH (Day 85): 22 pg
- basophils (day 8): 0.3%
- eosinophils (day 8): 0.3%
- lymphocytes (day 8): 45%
- monocytes (day 8): 2.7%
- neutrophils (day 8): 51%
- platelet count (day 8): 391000 µL⁻¹
- reticulocytes (day 8): 1.2%
- MCH (day 8): 23 pg
- MCHC (day 8): 30 g/dL
- MCV (day 8): 77 fL
- RBC count (day 8): 5.6e+06 µL⁻¹
- WBC count (day 8): 12000 µL⁻¹
- hematocrit (day 8): 43%
- hemoglobin (day 8): 12.8 g/dL
- basophils (day 15): 0.2%
- eosinophils (day 15): 0.3%
- lymphocytes (day 15): 43%
- monocytes (day 15): 2.2%
- neutrophils (day 15): 54%
- platelet count (day 15): 400000 µL⁻¹
- reticulocytes (day 15): 1.6%
- MCH (day 15): 23 pg
- MCHC (day 15): 31 g/dL
- MCV (day 15): 74 fL
- RBC count (day 15): 5.4e+06 µL⁻¹
- WBC count (day 15): 11000 µL⁻¹
- hematocrit (day 15): 40%
- hemoglobin (day 15): 12.6 g/dL
- basophils (day 22): 0.2%
- eosinophils (day 22): 0.6%
- lymphocytes (day 22): 49%
- monocytes (day 22): 2.8%
- neutrophils (day 22): 47%
- platelet count (day 22): 316000 µL⁻¹
- reticulocytes (day 22): 1.3%
- MCH (day 22): 24 pg
- MCHC (day 22): 30 g/dL
- MCV (day 22): 77 fL
- RBC count (day 22): 5.3e+06 µL⁻¹
- WBC count (day 22): 11000 µL⁻¹
- hematocrit (day 22): 41%
- hemoglobin (day 22): 12.4 g/dL
- basophils (day 29): 0.2%
- eosinophils (day 29): 0.6%
- lymphocytes (day 29): 51%
- monocytes (day 29): 3.8%
- neutrophils (day 29): 43%
- platelet count (day 29): 336000 µL⁻¹
- reticulocytes (day 29): 1.5%
- MCH (day 29): 23 pg
- MCHC (day 29): 30 g/dL
- MCV (day 29): 78 fL
- RBC count (day 29): 5.3e+06 µL⁻¹
- WBC count (day 29): 12000 µL⁻¹
- hematocrit (day 29): 41%
- hemoglobin (day 29): 12.3 g/dL
- basophils (day 36): 0.3%
- eosinophils (day 36): 0.4%
- lymphocytes (day 36): 49%
- monocytes (day 36): 2.9%
- neutrophils (day 36): 47%
- platelet count (day 36): 371000 µL⁻¹
- reticulocytes (day 36): 1.6%
- MCH (day 36): 23 pg
- MCHC (day 36): 31 g/dL
- MCV (day 36): 75 fL
- RBC count (day 36): 5.5e+06 µL⁻¹
- WBC count (day 36): 12000 µL⁻¹
- hematocrit (day 36): 40%
- hemoglobin (day 36): 12.6 g/dL
- basophils (day 43): 0.3%
- eosinophils (day 43): 0.3%
- lymphocytes (day 43): 51%
- monocytes (day 43): 3.1%
- neutrophils (day 43): 45%
- platelet count (day 43): 342000 µL⁻¹
- reticulocytes (day 43): 1.3%
- MCH (day 43): 23 pg
- MCHC (day 43): 31 g/dL
- MCV (day 43): 74 fL
- RBC count (day 43): 5.5e+06 µL⁻¹
- WBC count (day 43): 11000 µL⁻¹
- hematocrit (day 43): 40%
- hemoglobin (day 43): 12.4 g/dL
- basophils (day 50): 0.4%
- eosinophils (day 50): 0.4%
- lymphocytes (day 50): 48%
- monocytes (day 50): 4.6%
- neutrophils (day 50): 46%
- platelet count (day 50): 331000 µL⁻¹
- reticulocytes (day 50): 1.5%
- MCH (day 50): 23 pg
- MCHC (day 50): 30 g/dL
- MCV (day 50): 76 fL
- RBC count (day 50): 5.5e+06 µL⁻¹
- WBC count (day 50): 13000 µL⁻¹
- hematocrit (day 50): 41%
- hemoglobin (day 50): 12.2 g/dL
- basophils (day 57): 0.2%
- eosinophils (day 57): 0.3%
- lymphocytes (day 57): 51%
- monocytes (day 57): 3.8%
- neutrophils (day 57): 44%
- platelet count (day 57): 333000 µL⁻¹
- reticulocytes (day 57): 1.4%
- MCH (day 57): 22 pg
- MCHC (day 57): 31 g/dL
- MCV (day 57): 74 fL
- RBC count (day 57): 5.6e+06 µL⁻¹
- WBC count (day 57): 13000 µL⁻¹
- hematocrit (day 57): 41%
- hemoglobin (day 57): 12.7 g/dL
- basophils (day 64): 0.4%
- eosinophils (day 64): 0.4%
- lymphocytes (day 64): 56%
- monocytes (day 64): 4.4%
- neutrophils (day 64): 37%
- platelet count (day 64): 295000 µL⁻¹
- reticulocytes (day 64): 1.0%
- MCHC (day 64): 30 g/dL
- MCV (day 64): 73 fL
- RBC count (day 64): 5.7e+06 µL⁻¹
- WBC count (day 64): 12000 µL⁻¹
- hematocrit (day 64): 42%
- hemoglobin (day 64): 12.8 g/dL
- basophils (day 71): 0.4%
- eosinophils (day 71): 0.9%
- lymphocytes (day 71): 66%
- monocytes (day 71): 4.9%
- neutrophils (day 71): 26%
- platelet count (day 71): 286000 µL⁻¹
- reticulocytes (day 71): 1.3%
- MCHC (day 71): 30 g/dL
- MCV (day 71): 75 fL
- RBC count (day 71): 5.6e+06 µL⁻¹
- WBC count (day 71): 13000 µL⁻¹
- hematocrit (day 71): 42%
- hemoglobin (day 71): 12.7 g/dL
- basophils (day 78): 0.4%
- eosinophils (day 78): 0.5%
- lymphocytes (day 78): 54%
- monocytes (day 78): 4.9%
- neutrophils (day 78): 39%
- platelet count (day 78): 262000 µL⁻¹
- reticulocytes (day 78): 1.2%
- MCHC (day 78): 32 g/dL
- MCV (day 78): 72 fL
- RBC count (day 78): 5.4e+06 µL⁻¹
- WBC count (day 78): 11000 µL⁻¹
- hematocrit (day 78): 39%
- hemoglobin (day 78): 12.4 g/dL
- basophils (day 85): 0.3%
- eosinophils (day 85): 0.6%
- lymphocytes (day 85): 52%
- monocytes (day 85): 6.1%
- neutrophils (day 85): 40%
- platelet count (day 85): 267000 µL⁻¹
- reticulocytes (day 85): 1.3%
- MCHC (day 85): 31 g/dL
- MCV (day 85): 72 fL
- RBC count (day 85): 5.5e+06 µL⁻¹
- WBC count (day 85): 11000 µL⁻¹
- hematocrit (day 85): 39%
- hemoglobin (day 85): 11.9 g/dL
- basophils (day −5): 0.3%
- eosinophils (day −5): 1.3%
- lymphocytes (day −5): 49%
- monocytes (day −5): 2.8%
- neutrophils (day −5): 46%
- platelet count (day −5): 463000 µL⁻¹
- reticulocytes (day −5): 0.9%
- MCH (day −5): 23 pg
- MCHC (day −5): 31 g/dL
- MCV (day −5): 75 fL
- RBC count (day −5): 5.6e+06 µL⁻¹
- WBC count (day −5): 14000 µL⁻¹
- hematocrit (day −5): 42%
- hemoglobin (day −5): 13.2 g/dL
- basophils (day −14): 0.3%
- eosinophils (day −14): 0.7%
- lymphocytes (day −14): 58%
- monocytes (day −14): 2.8%
- neutrophils (day −14): 37%
- platelet count (day −14): 419000 µL⁻¹
- reticulocytes (day −14): 1.0%
- MCH (day −14): 24 pg
- MCHC (day −14): 31 g/dL
- MCV (day −14): 77 fL
- RBC count (day −14): 5.6e+06 µL⁻¹
- WBC count (day −14): 14000 µL⁻¹
- hematocrit (day −14): 43%
- hemoglobin (day −14): 13.2 g/dL
